This note sets out measurements from ChEMBL document CHEMBL1157392, “A cycloartane incorporating a fused tetrahydrofuran ring and a cytotoxic lactam from Monocarpia marginalis” (J Nat Prod, 2008).

Each structure is given as a SMILES string. ≈ marks a conversion by molar mass, not a printed value. A value given as a limit tells only on which side of the number the result lay.

What is called IC50 is the midpoint of a concentration-inhibition curve. Low readings indicate higher potency, high ones lower potency.

What all share (type): functional, cell-based
A short description of test [1]: Cytotoxicity against vincristine-resistant human KB/VJ300 cells.
Another test concerns KB. The test is described as follows: Cytotoxicity against drug-sensitive human KB cells.
The next test deals with Jurkat. The experiment in a line: Cytotoxicity against human Jurkat cells.

Take `COc1cc2c(c3c1=CC=N3)C(=O)C1=CC=CC(=O)NC=21` [MONOMARGININE]: the results for the IC50 (in test [1]; in the test on KB; in the test with Jurkat) were 2.6 µg/mL (≈ 9.34 µM), 4 µg/mL (≈ 14.4 µM) and 0.4 µg/mL (≈ 1.44 µM), respectively.

Consider `O=C1C=CC=C2C(=O)c3c4c(ccc3=C2N1)=CC=N4` [MONOMARGINE], for which the results for the IC50 (in test [1]; in the test on KB; in the test on Jurkat) were 3 µg/mL (≈ 12.1 µM), 4.7 µg/mL (≈ 18.9 µM) and 0.7 µg/mL (≈ 2.82 µM), respectively.

On to `CC(C)=C1CC[C@H]([C@H]2CC[C@@]3(C)[C@@H]4CC[C@H]5C(C)(C)[C@@H](O)C(=O)C[C@@]56C[C@@]46CC[C@]23C)[C@H](O)C1` [MONOCARPINE], for which, in the test on KB, the IC50 is over 5 µg/mL.
